From patent US11840686B2, “Modulation of prekallikrein (PKK) expression” (Ionis Pharmaceuticals, Inc., priority 2013, dated 2023)
Strand notation (5' to 3'): a small letter for the sugar, then the base; units joined by * are phosphorothioate-linked, units joined directly phosphodiester-linked; [ ] holds rarer units or linkages, { } end groups; capitals alone tell only the bases. e = 2'-O-(2-methoxyethyl) (MOE); [5mC] = 5-methylcytosine; d = 2'-deoxy (DNA)

Key:
human PKK mRNA [1] = experiment: Dose-dependent antisense inhibition of human PKK in HepaRG cells, 0.12-10.00 uM (Example 4); format: cell-based; conditions: electroporation, ~16 h; for percent inhibition of PKK at 0.12 μM: Table 33, 0.12 μM; for percent inhibition of PKK at 0.37 μM: Table 33, 0.37 μM; for percent inhibition of PKK at 1.11 μM: Table 33, 1.11 μM; for percent inhibition of PKK at 3.33 μM: Table 33, 3.33 μM; for percent inhibition of PKK at 10.00 μM: Table 33, 10.00 μM; for IC50: Table 33, PKK mRNA
Experimental: Cells were plated at a density of 20,000 cells per well and transfected using electroporation with 0.12 μM, 0.37 μM, 1.11 μM, 3.33 μM, and 10.00 μM concentrations of antisense oligonucleotide. After a treatment period of approximately 16 hours, RNA was isolated from the cells and PKK mRNA levels were measured by quantitative real-time PCR. Human PKK primer probe set RTS3454 was used to measure mRNA levels. PKK mRNA levels were adjusted according to total RNA content, as measured by RIBOGREEN®. The antisense oligonucleotides were tested in a series of experiments that had similar culture conditions. Results are presented as percent inhibition of PKK, relative to untreated control cells.
The half maximal inhibitory concentration (IC50) of each oligonucleotide is also presented.

human PKK mRNA [2] = experiment: Antisense inhibition of human PKK mRNA in HepaRG cells, 3,000 nM (Example 1); format: cell-based; conditions: Table 4; HepaRG cells, electroporation with 3,000 nM antisense oligonucleotide, approx. 24 hours; PKK mRNA by RT-PCR (RTS3454), relative to untreated control cells
How it was run: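 HepaRG cells, 20,000 per well, were electroporated with 3,000 nM 5-10-5 MOE gapmer (phosphorothioate, 5-methylcytosine). After about 24 h, PKK mRNA was measured by qRT-PCR with primer probe set RTS3454 and normalised to RIBOGREEN total RNA. Values are percent inhibition versus untreated cells.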

Substance | percent inhibition of PKK at 0.12 μM (human PKK mRNA [1]) [%] | percent inhibition of PKK at 0.37 μM (human PKK mRNA [1]) [%] | percent inhibition of PKK at 1.11 μM (human PKK mRNA [1]) [%] | percent inhibition of PKK at 3.33 μM (human PKK mRNA [1]) [%] | percent inhibition of PKK at 10.00 μM (human PKK mRNA [1]) [%] | IC50 (human PKK mRNA [1]) [nM] | % inhibition (human PKK mRNA [2]) [%]
531172 (antisense eT*eT*e[5mC]*eA*eA*dG*d[5mC]*d[5mC]*dT*dG*dG*dG*d[5mC]*dA*dG*e[5mC]*eA*e[5mC]*eA*eG) [compound 531172] | 0 | 16 | 37 | 60 | 60 | 2100 | 71
531198 (eG*eG*eG*eA*eT*dT*dT*dT*dG*d[5mC]*dT*dG*dA*dA*dG*e[5mC]*eT*eG*eG*eT; antisense) [compound 531198] | 0 | 35 | 62 | 76 | 60 | 800 | 73
531232 (e[5mC]*eT*eG*eT*eA*d[5mC]*dT*dA*dG*dT*dT*dT*d[5mC]*d[5mC]*dT*eA*eT*eA*eA*e[5mC]; antisense) [compound 531232] | 15 | 26 | 40 | 62 | 76 | 1700 | 85
531233 (eA*e[5mC]*eT*eG*eT*dA*d[5mC]*dT*dA*dG*dT*dT*dT*d[5mC]*d[5mC]*eT*eA*eT*eA*eA; antisense) [compound 531233] | 17 | 27 | 50 | 77 | 84 | 1000 | 86
531234 (e[5mC]*eA*e[5mC]*eT*eG*dT*dA*d[5mC]*dT*dA*dG*dT*dT*dT*d[5mC]*e[5mC]*eT*eA*eT*eA; antisense) [compound 531234] | 24 | 21 | 47 | 72 | 82 | 1400 | 86
531235 (eT*e[5mC]*eA*e[5mC]*eT*dG*dT*dA*d[5mC]*dT*dA*dG*dT*dT*dT*e[5mC]*e[5mC]*eT*eA*eT; antisense) [compound 531235] | 27 | 55 | 62 | 84 | 95 | 400 | 86
531236 (eA*eT*e[5mC]*eA*e[5mC]*dT*dG*dT*dA*d[5mC]*dT*dA*dG*dT*dT*eT*e[5mC]*e[5mC]*eT*eA; antisense) [compound 531236] | 4 | 28 | 59 | 85 | 93 | 800 | 87
